Reference: patent publication US11583525B2, “Geranylgeranyltransferase I inhibitor for treatment of a PTEN defective cancer” (H. LEE MOFFITT CANCER CENTER AND RESEARCH INSTITUTE, INC., priority 2017, dated 2023)
Entries after “also recorded” stand apart in the source; their conditions may differ.

System: A549 cells
Assay: A549 cell xenografts in NOD/SCID gamma mice, GGTi-2418 alone or in combination with PDT
Format: in vivo
Details: 50 mg kg-1 intratumoural injection
Source text: FIGS. 4A, 4B, 4C, and 4D show both a non-degradable IP3R3 mutant and GGTi-2418 sensitize tumours to PDT. […] Implanted xenotransplanted mice, chosen randomly, were subjected to two rounds of PDT (see arrows) or left untreated (UT); n=4-6 mice per group. Left panel, tumour growth kinetics at the indicated time points. Middle panel, representative tumours imaged with IRDye 2-DG at the end of the experiment. Top right panel, representative excised tumours imaged 60 days post-injection. Bottom right panel, quantification of tumour weights. P values for the tumour volume and weight at day 60 were calculated by one-way ANOVA and multiple-comparisons test. Error bars indicate s.e.m. […] Middle panel, quantification of apoptosis. […] AFU, arbitrary fluorescence units. P values were calculated by one-way ANOVA and multiple-comparisons test. […] Bottom right panel, quantification of tumour weights. P values for the tumour volume and weight at day 60 were calculated by one-way ANOVA and multiple-comparisons test. […] Middle panel, quantification of apoptosis. […] P values were calculated by one-way ANOVA and multiple-comparisons test. […]
Experimental animals. […] Tumour growth was monitored daily, and tumour diameters were measured with callipers every other day. The tumour volume was calculated using the following equation: volume=π/6 ×(a×b2), where a is the major diameter and b is the minor diameter. […]

Cc1nc[nH]c1CN1CCN(C(=O)N[C@@H](CC(C)C)C(=O)O)[C@@H](Cc2ccccc2)C1=O [GGTi-2418]
growth rate of xenografts (GGTi-2418 by itself, two rounds of five consecutive days): only modestly affected the growth rate of xenografts | sensitization of tumour xenografts to PDT (tumour growth, weight, apoptosis) (GGTi-2418 in combination with PDT): sensitizes xenotransplanted tumours to photodynamic therapy; also recorded: significantly sensitized tumour xenografts to PDT
